Inhibition and Competition % data for one compound are collected here from patent US20120270237A9, “METHODS FOR THE IDENTIFICATION OF KINASE INTERACTING MOLECULES AND FOR THE PURIFICATION OF KINASE PROTEINS” (Cellzone AG, priority 2009, published 2012).

In one assay the target is CDK9 (Homo sapiens, UniProt P50750). Put plainly: Kinobeads competition binding, HeLa Placenta lysate mix. Set-up: capturing and identification of kinases from mixed HeLa placenta lysates; endogenous in cells; host or cells: mix of HeLa cell lysate and placenta tissue lysate. To be noted: 10 μM free compound. Here is the method:
(§1) To one aliquot of cell lysate 10 μM of the free compound (FIG. 3, CZC31326) was added and allowed to bind to proteins in the lysate. Then the affinity matrix with the immobilized compound was added to capture proteins that were not interacting with the previously added free compound. Beads were separated from the lysate and bead bound proteins were eluted in SDS sample buffer and subsequently separated by SDS-Polyacrylamide gel electrophoresis (FIG. 10). Suitable gel bands were cut out and subjected to in-gel proteolytic digestion with trypsin. The second lysate aliquot was processed identically, however no free compound was added (DMSO solvent control). Peptides originating from samples 1 and 2 were labeled with iTRAQ reagents (iTRAQ 114 and iTRAQ 117) and the combined samples were analyzed with a nano-flow liquid chromatography system coupled online to a tandem mass spectrometer (LC-MS/MS) experiment followed by iTRAQ reporter ion quantification in the MS/MS spectra as described in Example 2.

For the next assay, the target named is ALK2 (Homo sapiens, UniProt Q04771). The description is as above. Set-up: capturing and identification of kinases from mixed HeLa placenta lysates; endogenous in cells; host or cells: mix of HeLa cell lysate and placenta tissue lysate. To be noted: 10 μM free compound. As for the experimental part:
as §1

For another assay, the target named is ARG (Homo sapiens, UniProt P42684). The assay is described as above. Set-up: capturing and identification of kinases from mixed HeLa placenta lysates; endogenous in cells; host or cells: mix of HeLa cell lysate and placenta tissue lysate. To be noted: 10 μM free compound. Here is the method:
as §1

For a further assay, the target named is T1, HRI (Homo sapiens, UniProt Q9BQI3).
T1 construct: capturing and identification of kinases from L-363 cell lysate; endogenous in cells; host or cells: L-363 (DSMZ ACC49), treated with MG132 before harvest
Put plainly: Kinobeads competition binding, L-363 cell lysate. To be noted: 10 μM free compound, L-363 lysate. Here is the method: as §1, with “8).” for “10).”
(§2) For this experiment the human plasma cell leukaemia line L-363 was used (German Collection of Microorganisms and Cell Cultures, DSMZ number ACC49, Braunschweig, Germany). Cells were treated for three hours with 20 μM of the proteasome inhibitor MG132 (Z-Leu-Leu-Leu-al, Sigma C2211) prior to cell harvesting.

A further assay deals with T2, DYRK1A (Homo sapiens, UniProt Q13627).
T2 construct: capturing and identification of kinases from L-363 cell lysate; endogenous in cells; host or cells: L-363 (DSMZ ACC49), treated with MG132 before harvest
As to the kind of experiment: Kinobeads competition binding, L-363 cell lysate. To be noted: 10 μM free compound, L-363 lysate. Here is the method:
as §1, with “8).” for “10).”
as §2

A further assay deals with SLK (Homo sapiens, UniProt Q9H2G2). As to the kind of experiment: Kinobeads competition binding, L-363 cell lysate. To be noted: 10 μM free compound, L-363 lysate. Here is the method: as §1, with “8).” for “10).”
as §2

The next assay has as its target T3, DRAK2 (Homo sapiens, UniProt O94768).
T3 construct: capturing and identification of kinases from L-363 cell lysate; endogenous in cells; host or cells: L-363 (DSMZ ACC49), treated with MG132 before harvest
Put plainly: Kinobeads competition binding, L-363 cell lysate. As to conditions: 10 μM free compound, L-363 lysate. Here is the method: as §1, with “8).” for “10).”
as §2

The target in a further assay is T4, RSK4 (Homo sapiens, UniProt Q9UK32).
T4 construct: endogenous in cells; host or cells: L-363 (DSMZ ACC49), treated with MG132 before harvest
As to the kind of experiment: Kinobeads competition binding, L-363 cell lysate. As to conditions: 10 μM free compound, L-363 lysate. Here is the method: as §1, with “8).” for “10).”
as §2

The target in a further assay is T5, ULK1 (Homo sapiens, UniProt O75385).
T5 construct: endogenous in cells; host or cells: L-363 (DSMZ ACC49), treated with MG132 before harvest
As to the kind of experiment: Kinobeads competition binding, L-363 cell lysate. As to conditions: 10 μM free compound, L-363 lysate. Here is the method:
as §1, with “8).” for “10).”
as §2

Another assay concerns the target T6, NEK6 (Homo sapiens, UniProt Q9HC98).
T6 construct: capturing and identification of kinases from L-363 cell lysate; endogenous in cells; host or cells: L-363 (DSMZ ACC49), treated with MG132 before harvest
As to the kind of experiment: Kinobeads competition binding, L-363 cell lysate. To be noted: 10 μM free compound, L-363 lysate. As for the experimental part: as §1, with “8).” for “10).”
as §2

For another assay, the target named is T7, NIK (Homo sapiens, UniProt Q99558).
T7 construct: capturing and identification of kinases from L-363 cell lysate; endogenous in cells; host or cells: L-363 (DSMZ ACC49), treated 3 h with 20 uM MG132 before harvest
Put plainly: Kinobeads competition binding, L-363 cell lysate. To be noted: 10 μM free compound, L-363 lysate. Here is the method:
as §1, with “8).” for “10).”
as §2

For a further assay, the target named is T8, JAK3 (Homo sapiens, UniProt P52333).
T8 construct: capturing and identification of kinases from L-363 cell lysate; endogenous in cells; host or cells: L-363 (DSMZ ACC49), treated with MG132 before harvest
Put plainly: Kinobeads competition binding, L-363 cell lysate. To be noted: 10 μM free compound, L-363 lysate. Here is the method:
as §1, with “8).” for “10).”
as §2

A further assay concerns the target T9, NEK1 (Homo sapiens, UniProt Q96PY6).
T9 construct: capturing and identification of kinases from L-363 cell lysate; endogenous in cells; host or cells: L-363 (DSMZ ACC49), treated with MG132 before harvest
Put plainly: Kinobeads competition binding, L-363 cell lysate. To be noted: 10 μM free compound, L-363 lysate. As for the experimental part: as §1, with “8).” for “10).”
as §2

In the next assay the target is T10, ULK3 (Homo sapiens, UniProt Q6PHR2).
T10 sequence (Q6PHR2 1-472): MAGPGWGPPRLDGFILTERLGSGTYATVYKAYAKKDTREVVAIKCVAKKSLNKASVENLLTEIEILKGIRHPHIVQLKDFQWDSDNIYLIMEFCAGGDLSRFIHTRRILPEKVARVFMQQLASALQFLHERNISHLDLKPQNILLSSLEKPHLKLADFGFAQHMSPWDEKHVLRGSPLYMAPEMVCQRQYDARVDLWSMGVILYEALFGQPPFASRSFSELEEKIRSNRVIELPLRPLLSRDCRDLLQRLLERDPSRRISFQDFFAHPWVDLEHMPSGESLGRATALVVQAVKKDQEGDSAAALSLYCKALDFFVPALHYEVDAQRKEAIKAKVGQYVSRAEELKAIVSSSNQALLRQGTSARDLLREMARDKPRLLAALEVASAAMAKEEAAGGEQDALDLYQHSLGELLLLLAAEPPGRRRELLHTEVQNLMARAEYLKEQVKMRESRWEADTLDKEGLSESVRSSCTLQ
As to the kind of experiment: Kinobeads competition binding, L-363 cell lysate. As to conditions: 10 μM free compound, L-363 lysate. As for the experimental part:
as §1, with “8).” for “10).”
as §2

The next assay deals with T11, PIK4Ca (Homo sapiens, UniProt P42356).
T11 construct: capturing and identification of kinases from L-363 cell lysate; endogenous in cells; host or cells: L-363 (DSMZ ACC49), treated with MG132 before harvest
As to the kind of experiment: Kinobeads competition binding, L-363 cell lysate. As to conditions: 10 μM free compound, L-363 lysate. Here is the method:
as §1, with “8).” for “10).”
as §2

Another assay addresses T12, ADCK1 (Homo sapiens, UniProt Q86TW2).
T12 construct: capturing and identification of kinases from L-363 cell lysate; endogenous in cells; host or cells: L-363 (treated with MG132 before harvest)
Put plainly: Kinobeads competition binding, L-363 cell lysate. As to conditions: 10 μM free compound, L-363 lysate. As for the experimental part: as §1, with “8).” for “10).”
as §2

The next assay addresses T13, INSR (Homo sapiens, UniProt P06213).
T13 construct: capturing and identification of kinases from L-363 cell lysate; endogenous in cells; host or cells: L-363 (DSMZ ACC49), treated with MG132 before harvest
Put plainly: Kinobeads competition binding, L-363 cell lysate. To be noted: 10 μM free compound, L-363 lysate. As for the experimental part: as §1, with “8).” for “10).”
as §2

Chain of CDK9 (P50750 whole entry): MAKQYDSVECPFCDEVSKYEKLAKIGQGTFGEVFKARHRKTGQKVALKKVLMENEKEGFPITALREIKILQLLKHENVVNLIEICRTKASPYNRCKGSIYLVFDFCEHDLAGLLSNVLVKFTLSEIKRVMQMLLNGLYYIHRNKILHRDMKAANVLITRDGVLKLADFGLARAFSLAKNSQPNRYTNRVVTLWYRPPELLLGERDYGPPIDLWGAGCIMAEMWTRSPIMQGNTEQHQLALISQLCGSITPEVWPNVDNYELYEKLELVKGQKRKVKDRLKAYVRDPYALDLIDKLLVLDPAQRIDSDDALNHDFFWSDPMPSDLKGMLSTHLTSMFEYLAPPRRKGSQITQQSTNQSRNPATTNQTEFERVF
T11 sequence (P42356 whole entry): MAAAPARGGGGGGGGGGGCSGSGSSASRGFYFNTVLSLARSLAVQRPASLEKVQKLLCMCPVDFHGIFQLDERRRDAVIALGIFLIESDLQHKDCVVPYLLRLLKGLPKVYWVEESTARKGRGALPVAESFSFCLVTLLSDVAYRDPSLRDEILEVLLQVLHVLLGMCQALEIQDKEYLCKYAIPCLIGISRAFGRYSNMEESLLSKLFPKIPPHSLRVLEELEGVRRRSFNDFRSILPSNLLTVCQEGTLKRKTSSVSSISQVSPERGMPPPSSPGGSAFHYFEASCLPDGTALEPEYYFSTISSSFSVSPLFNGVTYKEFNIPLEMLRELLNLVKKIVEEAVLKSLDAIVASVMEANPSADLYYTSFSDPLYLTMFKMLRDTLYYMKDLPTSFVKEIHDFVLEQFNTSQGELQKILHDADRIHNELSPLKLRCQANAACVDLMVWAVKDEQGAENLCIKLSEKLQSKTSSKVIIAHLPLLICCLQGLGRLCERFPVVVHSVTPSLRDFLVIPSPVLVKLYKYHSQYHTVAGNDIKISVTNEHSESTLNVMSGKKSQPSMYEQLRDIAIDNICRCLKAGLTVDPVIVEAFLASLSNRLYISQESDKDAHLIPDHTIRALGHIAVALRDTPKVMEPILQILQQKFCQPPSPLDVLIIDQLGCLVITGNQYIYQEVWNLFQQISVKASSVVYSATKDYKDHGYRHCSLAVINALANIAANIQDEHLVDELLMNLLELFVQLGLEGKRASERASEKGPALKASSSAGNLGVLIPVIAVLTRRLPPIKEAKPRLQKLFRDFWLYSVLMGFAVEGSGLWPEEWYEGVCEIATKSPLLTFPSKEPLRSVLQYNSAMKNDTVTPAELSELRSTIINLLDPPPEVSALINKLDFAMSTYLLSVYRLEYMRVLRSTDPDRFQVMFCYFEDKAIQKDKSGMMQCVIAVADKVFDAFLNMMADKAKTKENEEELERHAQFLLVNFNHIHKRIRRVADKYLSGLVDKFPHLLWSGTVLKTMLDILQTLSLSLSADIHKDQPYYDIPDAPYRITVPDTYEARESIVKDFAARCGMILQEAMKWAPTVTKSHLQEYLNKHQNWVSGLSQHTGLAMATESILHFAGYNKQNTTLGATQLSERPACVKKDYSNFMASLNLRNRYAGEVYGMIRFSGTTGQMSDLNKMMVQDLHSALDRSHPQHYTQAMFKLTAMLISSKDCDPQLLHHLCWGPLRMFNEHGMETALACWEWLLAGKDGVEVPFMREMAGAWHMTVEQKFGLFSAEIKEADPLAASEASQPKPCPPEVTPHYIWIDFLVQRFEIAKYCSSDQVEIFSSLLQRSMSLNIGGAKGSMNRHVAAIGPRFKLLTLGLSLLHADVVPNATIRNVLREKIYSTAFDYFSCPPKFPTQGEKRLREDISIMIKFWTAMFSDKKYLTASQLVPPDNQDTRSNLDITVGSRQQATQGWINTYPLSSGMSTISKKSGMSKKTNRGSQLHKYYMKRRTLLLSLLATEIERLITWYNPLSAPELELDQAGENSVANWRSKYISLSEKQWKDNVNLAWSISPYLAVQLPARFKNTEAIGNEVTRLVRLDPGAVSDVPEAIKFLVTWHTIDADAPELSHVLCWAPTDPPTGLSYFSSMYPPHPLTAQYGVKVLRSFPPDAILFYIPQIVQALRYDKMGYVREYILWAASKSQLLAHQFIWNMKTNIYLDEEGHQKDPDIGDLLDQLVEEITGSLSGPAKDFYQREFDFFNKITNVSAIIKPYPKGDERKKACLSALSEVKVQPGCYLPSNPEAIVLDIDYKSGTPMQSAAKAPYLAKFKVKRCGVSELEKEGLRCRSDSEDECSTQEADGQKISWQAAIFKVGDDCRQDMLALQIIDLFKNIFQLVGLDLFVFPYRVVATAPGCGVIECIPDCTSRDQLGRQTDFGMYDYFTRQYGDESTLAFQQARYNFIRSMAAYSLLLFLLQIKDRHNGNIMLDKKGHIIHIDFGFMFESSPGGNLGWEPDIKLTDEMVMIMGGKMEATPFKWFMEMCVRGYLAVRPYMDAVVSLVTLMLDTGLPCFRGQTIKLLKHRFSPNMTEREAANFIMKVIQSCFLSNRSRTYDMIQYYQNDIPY
Chain of ARG (P42684 whole entry): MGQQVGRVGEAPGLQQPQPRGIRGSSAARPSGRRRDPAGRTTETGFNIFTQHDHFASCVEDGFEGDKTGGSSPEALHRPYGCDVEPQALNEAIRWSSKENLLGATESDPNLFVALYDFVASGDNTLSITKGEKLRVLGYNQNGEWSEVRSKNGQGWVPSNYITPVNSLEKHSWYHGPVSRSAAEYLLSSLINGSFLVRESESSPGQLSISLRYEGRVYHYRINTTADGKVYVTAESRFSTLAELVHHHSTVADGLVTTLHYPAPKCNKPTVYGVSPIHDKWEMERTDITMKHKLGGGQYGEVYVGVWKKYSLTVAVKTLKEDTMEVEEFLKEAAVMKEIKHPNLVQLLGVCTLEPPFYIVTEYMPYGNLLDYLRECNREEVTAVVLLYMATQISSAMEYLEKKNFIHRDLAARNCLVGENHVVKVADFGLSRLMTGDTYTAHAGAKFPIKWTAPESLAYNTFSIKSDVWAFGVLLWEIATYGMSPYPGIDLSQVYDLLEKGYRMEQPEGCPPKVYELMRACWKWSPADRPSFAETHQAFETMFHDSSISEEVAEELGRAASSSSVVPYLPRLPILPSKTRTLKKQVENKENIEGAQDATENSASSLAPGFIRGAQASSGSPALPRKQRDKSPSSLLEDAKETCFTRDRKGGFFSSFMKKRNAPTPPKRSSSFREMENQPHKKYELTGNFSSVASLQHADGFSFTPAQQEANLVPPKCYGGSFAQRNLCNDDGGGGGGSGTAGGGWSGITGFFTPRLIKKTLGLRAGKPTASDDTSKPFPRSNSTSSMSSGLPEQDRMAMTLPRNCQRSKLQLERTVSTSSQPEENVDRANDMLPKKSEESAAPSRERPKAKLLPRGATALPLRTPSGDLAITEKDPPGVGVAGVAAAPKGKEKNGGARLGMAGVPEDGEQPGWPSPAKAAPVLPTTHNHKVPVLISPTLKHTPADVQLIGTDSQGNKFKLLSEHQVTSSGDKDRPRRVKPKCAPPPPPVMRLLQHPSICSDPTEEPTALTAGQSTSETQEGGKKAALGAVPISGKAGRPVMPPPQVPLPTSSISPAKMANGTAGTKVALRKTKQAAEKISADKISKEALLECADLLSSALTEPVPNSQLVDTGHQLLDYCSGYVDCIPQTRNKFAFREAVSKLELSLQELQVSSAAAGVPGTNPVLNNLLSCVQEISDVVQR
T5 sequence (O75385 whole entry): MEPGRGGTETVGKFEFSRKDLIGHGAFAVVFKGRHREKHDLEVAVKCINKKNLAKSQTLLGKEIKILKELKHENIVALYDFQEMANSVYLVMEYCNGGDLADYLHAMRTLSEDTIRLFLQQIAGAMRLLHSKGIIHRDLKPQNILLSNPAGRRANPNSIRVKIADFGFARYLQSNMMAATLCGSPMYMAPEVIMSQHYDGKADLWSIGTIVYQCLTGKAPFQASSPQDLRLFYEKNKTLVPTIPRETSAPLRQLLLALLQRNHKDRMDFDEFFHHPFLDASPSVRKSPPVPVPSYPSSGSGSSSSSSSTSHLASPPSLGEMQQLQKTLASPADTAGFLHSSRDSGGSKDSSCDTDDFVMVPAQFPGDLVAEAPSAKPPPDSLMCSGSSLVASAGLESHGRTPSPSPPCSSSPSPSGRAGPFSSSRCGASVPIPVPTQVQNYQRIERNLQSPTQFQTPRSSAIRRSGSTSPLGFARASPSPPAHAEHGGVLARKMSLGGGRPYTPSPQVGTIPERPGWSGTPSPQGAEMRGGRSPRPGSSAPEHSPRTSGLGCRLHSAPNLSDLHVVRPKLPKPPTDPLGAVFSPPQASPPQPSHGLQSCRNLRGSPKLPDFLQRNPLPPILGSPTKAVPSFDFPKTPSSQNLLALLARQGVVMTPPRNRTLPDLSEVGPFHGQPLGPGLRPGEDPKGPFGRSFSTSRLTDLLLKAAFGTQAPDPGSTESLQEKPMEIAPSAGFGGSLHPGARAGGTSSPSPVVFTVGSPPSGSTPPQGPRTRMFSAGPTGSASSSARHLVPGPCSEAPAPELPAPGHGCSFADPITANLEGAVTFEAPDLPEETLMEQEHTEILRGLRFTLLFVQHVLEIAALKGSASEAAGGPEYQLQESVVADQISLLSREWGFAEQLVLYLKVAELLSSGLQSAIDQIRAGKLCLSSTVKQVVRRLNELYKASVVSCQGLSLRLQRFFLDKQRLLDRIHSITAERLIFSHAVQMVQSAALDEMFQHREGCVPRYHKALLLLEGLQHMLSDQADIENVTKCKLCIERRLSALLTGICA
T6 sequence (Q9HC98 whole entry): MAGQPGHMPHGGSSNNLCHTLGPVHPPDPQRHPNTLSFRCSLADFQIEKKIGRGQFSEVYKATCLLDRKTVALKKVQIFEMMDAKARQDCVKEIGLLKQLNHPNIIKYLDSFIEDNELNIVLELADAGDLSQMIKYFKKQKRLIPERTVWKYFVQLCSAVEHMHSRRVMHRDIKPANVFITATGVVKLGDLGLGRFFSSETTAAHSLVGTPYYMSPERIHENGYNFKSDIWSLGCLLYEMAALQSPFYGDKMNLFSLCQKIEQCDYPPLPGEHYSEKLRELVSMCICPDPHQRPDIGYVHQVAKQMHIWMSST

On to `CS(=O)(=O)Nc1ccccc1Nc1nc(Nc2cccc(OCCN)c2)ncc1Cl` [CZC31326, N-(2-(2-(3-(2-aminoethoxy)phenylamino)-5-chloropyrimidin-4-ylamino)phenyl)methanesulfonamide], for which the inhibition (usually the drop in the measured response relative to a control, in per cent) at 10 µM worked out at 95.3% on CDK9; 94.3% on ALK2; 91.2% at ARG; 95.8% at HRI; 96.5% at DYRK1A; 95% at SLK. For the same compound, the inhibition at 10 µM on DRAK2 was found to be 93.3%; at NEK6 it was 83.7%; on NIK, 98%; on JAK3, 98.1%; at NEK1, 95.7%; on PIK4Ca, 86%. In addition, the inhibition at 10 µM on ADCK1 is 93.8%; at INSR, 90.1%. For the same compound, the Competition % on RSK4 worked out at 96.7%; at ULK1, 96.5%; on ULK3 it was 98.5%.
